This is an account of results in patent US20210401798A1, “LIPOXIN A4 ANALOGS AND USES THEREOF” (The Brigham and Women's Hospital, Inc., priority 2018, published 2021).

The test system of one data set is peritoneal lavage cells. In words: Cell count in mouse peritonitis model (zymosan). Format: in vivo.
Data set [1] has as its target T1, human recombinant CB1 receptor (Homo sapiens, UniProt P21554).
T1 construct: expressed in transfected cells; host or cells: Chem cells (membrane homogenates)
As to the kind of experiment: CB1 radioligand binding assay. The method, then: (§1) The binding affinity (% inhibition, K) of each of Compounds (1) and (2) for the CB1 and CB2 receptors was determined by a competitive radioligand binding assay. […] By comparison, no binding of the free acid to either the CB1 or CB2 receptors was observed (FIG. 5). The radioligand binding assays were performed as described below.
CB1 Radioligand Binding Assay: Cell membrane homogenates (5 μg protein) prepared from Chem cells expressing human recombinant CB1 receptor were incubated for 30 min at 22° C. with 2 nM [^3H]CP 55940 (CB1/CB2 radioligand) in the absence or presence of the test compound in a buffer containing 50 mM Tris-HCl (pH 7.4), 5 mM MgCl2, 2.5 mM EDTA and 0.3% BSA. Nonspecific binding is determined in the presence of 10 μM WIN 55212-2. Each compound was tested in 8 concentrations. For each concentration, % Inhibition was determined as a function of radioligand specific binding to the CB1 receptor. The K was determined from the concentration-response curve of each tested compound.
(§2) Further details for determining the binding affinity of compounds for a cannabinoid receptor by competitive radioligand binding can be found in the literature, for example, in Rinaldi-Carmona M, et al. Characterization of two cloned human CB1 cannabinoid receptors isoform. […]

In data set [2] the target is T2, human recombinant CB2 receptor (Homo sapiens, UniProt P34972).
T2 construct: expressed in transfected cells; host or cells: CHO cells (membrane homogenates)
T2 sequence (P34972 whole entry): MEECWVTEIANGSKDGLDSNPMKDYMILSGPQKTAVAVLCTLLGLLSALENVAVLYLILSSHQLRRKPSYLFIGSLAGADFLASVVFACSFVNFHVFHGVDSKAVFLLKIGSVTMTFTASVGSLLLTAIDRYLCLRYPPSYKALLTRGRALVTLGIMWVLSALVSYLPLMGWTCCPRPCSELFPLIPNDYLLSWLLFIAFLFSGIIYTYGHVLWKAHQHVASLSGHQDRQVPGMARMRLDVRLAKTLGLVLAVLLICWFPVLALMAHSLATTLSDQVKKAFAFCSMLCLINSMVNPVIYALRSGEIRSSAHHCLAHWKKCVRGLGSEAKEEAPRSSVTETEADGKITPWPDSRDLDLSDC
In words: CB2 radioligand binding assay. The protocol: as §1
CB2 Radioligand Binding Assay: Cell membrane homogenates (12 μg protein) prepared from CHO cells expressing human recombinant CB2 receptor were incubated for 120 min at 37° C. with 0.8 nM [^3H]WIN 55212-2 (CB1/CB2 radioligand) in the absence or presence of the test compound in a buffer containing 50 mM Hepes/Tris (pH 7.4), 5 mM MgCl2, 2.5 mM EGTA and 0.1% BSA. Nonspecific binding was determined in the presence of 5 μM WIN 55212-2. Each compound was tested in 8 concentrations. For each concentration, % Inhibition was determined as a function of radioligand specific binding to the CB2 receptor. The K was determined from the concentration-response curve of each tested compound.
as §2

Data set [3] is described as follows: Rat pharmacokinetic study. Format: in vivo. The note with it: SD rats, IV 0.3 mg/kg. The protocol:
Sprague Dawley (SD) rats (n=3/group) were administered either compound (1) or compound (2) orally at 10 mg/kg (5% ethanol, 5% VE-TPGS, 90% PEG400) or intravenously at 0.3 mg/kg (5% NMP, 95% PEG400). The resulting individual and mean plasma concentration-time was measured for the free acid, compound (2), with the data provided in Tables 4-7.

For data set [4], the target named is T3, human ALX/FPR2 (LXA4 Receptor) (Homo sapiens, UniProt P25090).
T3 construct: host or cells: HEK cells (HEK-ALX)
T3 sequence (P25090 1-351): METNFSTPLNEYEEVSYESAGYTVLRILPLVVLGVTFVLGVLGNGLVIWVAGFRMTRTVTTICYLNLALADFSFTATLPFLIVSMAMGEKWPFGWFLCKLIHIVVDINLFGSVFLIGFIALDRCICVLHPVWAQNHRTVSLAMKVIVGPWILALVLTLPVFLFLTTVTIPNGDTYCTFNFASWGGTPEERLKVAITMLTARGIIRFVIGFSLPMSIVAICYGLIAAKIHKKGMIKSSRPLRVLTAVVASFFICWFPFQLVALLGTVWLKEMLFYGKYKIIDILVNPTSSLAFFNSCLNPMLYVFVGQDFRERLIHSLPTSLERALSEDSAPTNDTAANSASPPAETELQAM
In words: Beta-Arrestin PathHunter ALX/FPR2 activation assay. Format: cell-based. The note with it: HEK-ALX cells, 1 h at 37° C., chemiluminescence. The protocol:
(§3) Ligand receptor interactions were monitored using the Beta-Arrestin PathHunter eXpress System™ (DiscoverX, Fremont, Calif.) and carried out with HEK cells stably overexpressing recombinant human ALX receptors. HEK-ALX cells were plated onto 96-well plates 24 h prior to experiments. Test compounds at indicated concentrations were incubated with cells for 1 h at 37° C. and receptor activation was determined by measuring chemiluminescence using the PathHunter detection kit. Results are expressed as % increase of chemiluminescence above vehicle control (FIG. 3). Results are mean from 3 or 4 independent experiments and 3 replicates in each experiment.

The target of data set [5] is T4, human GPR32 (RvD1 Receptor) (Homo sapiens, UniProt O75388).
T4 construct: host or cells: CHO cells (CHO-GPR32)
T4 sequence (O75388 whole entry): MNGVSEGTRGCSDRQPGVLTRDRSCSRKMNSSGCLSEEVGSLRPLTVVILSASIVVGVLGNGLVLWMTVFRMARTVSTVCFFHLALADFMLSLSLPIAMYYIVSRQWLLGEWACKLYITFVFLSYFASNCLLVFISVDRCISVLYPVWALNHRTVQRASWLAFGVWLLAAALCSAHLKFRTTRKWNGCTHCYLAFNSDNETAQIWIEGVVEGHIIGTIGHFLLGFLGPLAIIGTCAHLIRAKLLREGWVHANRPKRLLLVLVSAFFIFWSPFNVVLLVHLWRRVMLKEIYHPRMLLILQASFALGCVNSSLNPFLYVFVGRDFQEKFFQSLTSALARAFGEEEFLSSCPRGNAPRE
In words: Beta-Arrestin PathHunter GPR32 activation assay. In kind it is cell-based. As to conditions: CHO-GPR32 cells, 1 h at 37° C., chemiluminescence. The protocol: as §3, with “with CHO” for “with HEK”, “human GPR32” for “human ALX”, “receptors. CHO-GPR32” for “receptors. HEK-ALX”, “kit. The results of this experiment” for “kit. Results”, “(FIG. 2).” for “(FIG. 3).”

Another data set relates to PMN. In words: PMN clearance in vivo, E. coli initiated peritonitis. Also on record: species or system mouse. The protocol: FVB mice (male, 6 wks old) were inoculated with E. coli (10^5 CFU). […] Total leukocytes were enumerated using light microscopy and PMN numbers were determined by flow cytometry. […] Resolution indices were calculated using PMN numbers.
The test system of another data set is Human Mϕ. As to the kind of experiment: Human macrophage phagocytosis of live E. coli. As to conditions: BacLight Green-labeled E. coli, fluorescence. Format: cell-based. The method, then: Human Mϕ were plated onto chamber slides (0.1×10^6 cells/well), incubated with RvD1, compound (10 nM), or vehicle alone for 15 min at 37° C., followed by addition of BacLight Green-labeled E. coli to initiate phagocytosis. Fluorescent images were then recorded every 10 min for 120 min (37° C.) using Keyence BZ-9000 (BIOREVO) inverted fluorescence phase-contrast microscope (40× objective) equipped with a monochrome/color switching camera using BZ-II Viewer software (Keyence, Itasca, Ill., USA). Green fluorescence intensity was quantified using BZ-II Analyzer. Results are recordings of mean fluorescence intensity (MFI) from one representative donor (FIG. 6). Human Mϕ were plated onto 96-well plates (5×10^4 cells/well), incubated with RvD1, compound (1 pM-100 nM) or vehicle alone for 15 min at 37° C., followed by addition of BacLight Green-labeled E. coli (E. coli:Mϕ=50:1) to initiate phagocytosis. One hour later, fluorescence associated with Mϕ was determined using a microplate reader. Results are expressed as percent increase above vehicle (E. coli alone); mean from 4 separate experiments (FIG. 7).

[6] abbreviates: 24 h post-zymosan, 0.1 μg/mouse.
[7] abbreviates: FVB mice, 100 ng i.p. 12 h after inoculation.

T1 sequence (P21554 whole entry): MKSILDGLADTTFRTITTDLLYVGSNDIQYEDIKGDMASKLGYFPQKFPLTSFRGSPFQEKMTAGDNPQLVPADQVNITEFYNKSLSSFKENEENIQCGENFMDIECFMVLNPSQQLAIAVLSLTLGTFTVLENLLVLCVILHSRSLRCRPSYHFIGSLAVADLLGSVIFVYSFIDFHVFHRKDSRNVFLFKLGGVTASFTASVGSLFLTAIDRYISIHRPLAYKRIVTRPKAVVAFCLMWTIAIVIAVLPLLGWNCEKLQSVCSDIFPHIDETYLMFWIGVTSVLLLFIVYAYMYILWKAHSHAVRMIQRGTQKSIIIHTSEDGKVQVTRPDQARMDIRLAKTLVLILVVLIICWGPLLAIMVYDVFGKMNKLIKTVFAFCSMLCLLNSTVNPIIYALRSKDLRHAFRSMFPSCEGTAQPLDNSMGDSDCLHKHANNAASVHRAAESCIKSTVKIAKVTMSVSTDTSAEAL

With `CC/C=C\C[C@H](O)/C=C/C=C\C=C\C=C\[C@@H](O)[C@@H](O)C/C=C\CCC(=O)O` [RvD1, resolvin D1, reference compound], in the data set on peritoneal lavage cells (3 h post-zymosan, 0.1 μg/mouse), the “Estimated PMNs” value is recorded as 5723.25 10^3/ml, the “Granulocytes Counted (100 cells)” value amounted to 89.8, the “Mononuclear Counted (100 cells)” value is 10.8 and the “Nucleated Cells” value is 6375.00 10^3/ml. Moreover, in the data set on peritoneal lavage cells (3 h post-zymosan, 1 μg/mouse), the “Estimated PMNs” value was 6685.13 10^3/ml, the “Granulocytes Counted (100 cells)” value is 96.3, the “Mononuclear Counted (100 cells)” value was 3.8 and the “Nucleated Cells” value was 6232.50 10^3/ml. For the same molecule, in the data set with peritoneal lavage cells (24 h post-zymosan, 1 μg/mouse), the “Estimated PMNs” value was 11496.23 10^3/ml, the “Granulocytes Counted (100 cells)” value was determined as 86.6, the “Mononuclear Counted (100 cells)” value was 13.4 and the “Nucleated Cells” value is 13267.50 10^3/ml.
As for `O=C(O)COC[C@H](O)[C@H](O)/C=C/C=C/C#C/C=C/[C@H](O)COc1ccc(F)cc1` [Compound (2), 2-(((2S,3R,4E,6E,10E,12S)-13-(4-fluorophenoxy)-2,3,12-trihydroxytrideca-4,6,10-trien-8-yn-1-yl)oxy)acetic acid, reference compound], the “binding to CB1 receptor” value in data set [1] (radioligand binding) was “no binding”. Moreover, the “binding to CB2 receptor” value in data set [2] (radioligand binding) is recorded as “no binding”. In addition, the “plasma Concentration of compound (2), Individual” value (from here on “plasma Concentration … Individual”) in data set [3] (12 hr, 0.3 mg/kg) is recorded as “BQL”. For the same molecule, in data set [3] (24 hr), the “plasma Concentration … Individual” value was “BQL” and the “plasma Concentration of compound (2), Mean” value is “BQL”.
For `O=C1COC[C@@H]([C@H](O)/C=C/C=C/C#C/C=C/[C@H](O)COc2ccc(F)cc2)O1` [Compound (1), (S)-6-((1R,2E,4E,8E,10S)-11-(4-fluorophenoxy)-1,10-dihydroxyundeca-2,4,8-trien-6-yn-1-yl)-1,4-dioxan-2-one], the Ki in data set [1] ([3H]CP 55940 competition, read-out: K (binding affinity) CB1 receptor) is greater than 5000 nM. Also, the “activation of human ALX/FPR2 (LXA4 Receptor)” value in data set [4] is “activates”. In addition, the “activation of human GPR32 (RvD1 Receptor)” value in data set [5] is recorded as “activates”. In addition, in the data set on peritoneal lavage cells (3 h post-zymosan, 0.1 μg/mouse), the “Estimated PMNs” value was 5977.50 10^3/ml, the “Granulocytes Counted (100 cells)” value turned out to be 96.4, the “Mononuclear Counted (100 cells)” value is given as 3.6 and the “Nucleated Cells” value is given as 6165.00 10^3/ml. Also, in the data set with peritoneal lavage cells (3 h post-zymosan, 10 μg/mouse), the “Estimated PMNs” value is reported as “*4012.13 10^3/ml”, the “Granulocytes Counted (100 cells)” value turned out to be 95.0, the “Mononuclear Counted (100 cells)” value is 5.0 and the “Nucleated Cells” value is “*4237.50 10^3/ml”. For the same molecule, in the data set on peritoneal lavage cells (setting [6]), the “Estimated PMNs” value was 14672.70 10^3/ml, the “Granulocytes Counted (100 cells)” value was found to be 88.8, the “Mononuclear Counted (100 cells)” value was determined as 11.2 and the “Nucleated Cells” value is on record as 16380.00 10^3/ml. Besides, the Ki in data set [2] ([3H]WIN 55212-2 competition, read-out: K (binding affinity) CB2 receptor) worked out at 630 nM. Besides, in the data set on PMN (setting [7]), the “Resolution Interval” value came out at 11 h, the T50 is 23 h and the Tmax came out at 12 h. Also, in the data set on PMN (vs E. coli alone), the “reduction of Tmax” value is recorded as 50%. The “human macrophage phagocytosis of live E. coli” value in the data set on Human Mϕ is reported as “enhances”. Also, in data set [3] (8 hr, 0.3 mg/kg), the “plasma Concentration … Individual” value is “BQL”. Further, the “plasma Concentration … Individual” value in data set [3] (12 hr, 0.3 mg/kg) is on record as “BQL”. Also, in data set [3] (24 hr), the “plasma Concentration … Individual” value was “BQL” and the “plasma Concentration of compound (2), Mean” value is “BQL”.
